Measured values: patent US20170253607A1, “LONG-ACTING HIV PROTEASE INHIBITOR” (Shionogi & Co., Ltd., priority 2014, published 2017)

Legend:
[1] = Evaluation of total body clearance (CLtot), intravenous administration; type: in vivo, Sprague-Dawley (SD); details: rat (SD), intravenous administration 0.5-10 mg/kg; CLtot = dose/AUC
Method: Dose: Intravenous administration with designated doses was selected. (Doses were changed depending on compounds.) • 0.5-10 mg/kg (n=2-3) Preparation of dosing formulation: The dosing solution was prepared by dissolving in an adequate solvent. Administration method: The dosing solution was injected into the tail vein by a syringe with a needle Blood sampling: The blood was collected at the scheduled time and obtained the plasma. Plasma concentrations of the compound were measured by LC/MS/MS. Statistical analysis: Area under the plasma concentration-time curve (AUC) of the compound was calculated by pharmacokinetic analysis software, WinNonlin™ and CLtot was calculated by dividing the dose by AUC.

HIV-1 PR = HIV-1 PR (Human immunodeficiency virus type 1 group M subtype B, UniProt P04585); experiment: HIV-protease inhibitory activity assay (FRET peptide substrate); type: biochemical; details: Test Example 1
Summary of the method: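 HIV-1 PR (0.83 ng) preincubated with compounds 20 min at room temperature in 0.1 mol/L NaAc, 0.5 mol/L NaCl, 1 mmol/L EDTA, 1 mmol/L DTT, 0.05% Tween 20, pH 4.8. Cleavage of HiLyte Fluor 488/QXL 520 FRET peptide (2 μmol/L) read after 60 minutes at 485/535 nm; IC50 from four-parameter logistic fit.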

Compound | rat_CLt [1] [mL/min/kg] | IC50 (HIV-1 PR) [nM]
COc1ccc(S(=O)(=O)N(CC(C)C)CC(O)C(Cc2ccc(OCc3ccccc3-c3nc4n(c3C(=O)O)CCCC4)cc2)NC(=O)OC2COC3(C)OCCC23)cc1 (stereo not shown) [Compound I-125] | 3.89 | 1.58
COc1ccc(S(=O)(=O)N(CC(C)C)CC(O)C(Cc2ccc(OCc3ccccc3NC(=O)c3sc4c(c3C(=O)O)CC(C)(C)CC4)cc2)NC(=O)OC2COC3(C)OCCC23)cc1 (stereo not shown) [Compound I-214] | 0.297 | 1.89
COc1ccc(S(=O)(=O)N(CC(C)C)CC(O)C(Cc2ccc(NCc3ccc(F)c(-c4sc5c(c4C(=O)O)CC(C)(C)CC5)c3)cc2)NC(=O)OC2COC3(C)OCCC23)cc1 (stereo not shown) [Compound I-287] | 2.73 | 2.02
COc1ccc(S(=O)(=O)N(CC(C)C)CC(O)C(Cc2ccc(NCc3ncccc3-c3sc4c(c3C(=O)O)CC(C)(C)CC4)cc2)NC(=O)OC2COC3(C)OCCC23)cc1 (stereo not shown) [Compound I-305] | 1.55 | 1.99
COc1ccc(S(=O)(=O)N(CC(C)C)CC(O)C(Cc2ccc(N(CCCc3sc4c(c3C(=O)O)CC(C)(C)CC4)Cc3ccccc3)cc2)NC(=O)OC2COC3(C)OCCC23)cc1 (stereo not shown) [Compound I-371] | 4.69 | 10.5
COc1ccc(S(=O)(=O)N(CC(C)C)CC(O)C(Cc2ccc(NCC3COCCC3c3sc4c(c3C(=O)O)CC(C)(C)CC4)cc2)NC(=O)OC2COC3(C)OCCC23)cc1 (stereo not shown) [Compound I-399] | 0.487 | 1.94
COc1ccc(S(=O)(=O)N(CC(C)C)CC(O)C(Cc2ccc(N(C)Cc3ccccc3C(=O)Nc3sc4c(c3C(=O)O)CC(C)(C)CC4)cc2)NC(=O)OC2COC3(C)OCCC23)cc1 (stereo not shown) [Compound I-407] | 0.31 | 3.77
COc1ccc(S(=O)(=O)N(CC(C)C)CC(O)C(Cc2ccc(NCC3CCCC3c3sc4c(c3C(=O)O)CC(C)(C)CC4)cc2)NC(=O)OC2COC3(C)OCCC23)cc1 (stereo not shown) [Compound I-409] | 0.873 | 2.45
COc1ccc(S(=O)(=O)N(CC(C)C)CC(O)C(Cc2ccc(NCC3CCCC3c3sc4c(c3C(=O)O)CC(C)(C)CC4)cc2)NC(=O)OC2COC3(C)OCCC23)cc1 (stereo not shown) [Compound I-410] | 1.07 | 1.99
COc1ccc(S(=O)(=O)N(CC(C)C)CC(O)C(Cc2ccc(NCc3cccc(C(=O)Nc4sc5c(c4C(=O)O)CC(C)(C)CC5)c3)cc2)NC(=O)OC2COC3(C)OCCC23)cc1 (stereo not shown) [Compound I-436] | 1.72 | 3.17
COc1ccc(S(=O)(=O)N(CC(C)C)CC(O)C(Cc2ccc(NCc3ccc4scc(C(=O)Nc5sc6c(c5C(=O)O)CC(C)(C)CC6)c4c3)cc2)NC(=O)OC2COC3(C)OCCC23)cc1 (stereo not shown) [Compound I-440] | 0.871 | 4.5
COc1ccc(S(=O)(=O)N(CC(C)C)CC(O)C(Cc2ccc(N(C)Cc3cc(-c4sc5c(c4C(=O)O)CC(C)(C)CC5)co3)cc2)NC(=O)OC2COC3(C)OCCC23)cc1 (stereo not shown) [Compound I-448] | 5.28 | 2.31
COc1ccc(S(=O)(=O)N(CC(C)C)CC(O)C(Cc2ccc(N(C)Cc3ccc(-c4sc5c(c4C(=O)O)CC(C)(C)CC5)cn3)cc2)NC(=O)OC2COC3(C)OCCC23)cc1 (stereo not shown) [Compound I-449] | 11.1 | 2.19
COc1ccc(S(=O)(=O)N(CC(C)C)CC(O)C(Cc2ccc(N(C)Cc3ccc(-c4sc5c(c4C(=O)O)CC(C)(C)CC5)cc3)cc2)NC(=O)OC2COC3(C)OCCC23)cc1 (stereo not shown) [Compound I-450] | 3.7 | 2.68
COc1ccc(S(=O)(=O)N(CC(C)C)CC(O)C(Cc2ccc(N(C)Cc3cc(C(F)(F)F)ccc3-c3sc4c(c3C(=O)O)CC(C)(C)CC4)cc2)NC(=O)OC2COC3(C)OCCC23)cc1 (stereo not shown) [Compound I-451] | 0.211 | 9.46
COc1ccc(S(=O)(=O)N(CC(C)C)CC(O)C(Cc2ccc(NCc3cc4ccccc4c(-c4sc5c(c4C(=O)O)CC(C)(C)CC5)n3)cc2)NC(=O)OC2COC3(C)OCCC23)cc1 (stereo not shown) [Compound I-453] | 0.593 | 2.63
COc1ccc(S(=O)(=O)N(CC(C)C)CC(O)C(Cc2ccc(NCc3ccccc3-c3sc(N(C4CCCCC4)C4CCCCC4)nc3C(=O)O)cc2)NC(=O)OC2COC3(C)OCCC23)cc1 (stereo not shown) [Compound I-454] | 4.02 | 5.51
COc1ccc(S(=O)(=O)N(CC(C)C)CC(O)C(Cc2ccc(NCc3cc(N(C)C)ccc3-c3sc4c(c3C(=O)O)CC(C)(C)CC4)cc2)NC(=O)OC2COC3(C)OCCC23)cc1 (stereo not shown) [Compound I-455] | 0.236 | 2.38

Compound | rat_CLt [1] [mL/min/kg] | IC50 (HIV-1 PR) [nM]
CC(C)CN(CC(O)C(Cc1ccc(NCc2ccccc2-c2sc3c(c2C(=O)O)CC(C)(C)CC3)cc1)NC(=O)OC1COC2(C)OCCC12)S(=O)(=O)c1ccc2c(c1)OCO2 (stereo not shown) [Compound I-465] | 0.675 | 2.97
COc1ccc(S(=O)(=O)N(CC(C)C)CC(O)C(Cc2ccc(N(C)Cc3ccccc3-n3nc4c(c3C(=O)O)CC3(CCCC3)CC4)cc2)NC(=O)OC2COC3(C)OCCC23)cc1 (stereo not shown) [Compound I-466] | 1.75 | 4.28
COc1ccc(S(=O)(=O)N(CC(C)C)CC(O)C(Cc2ccc(NCC3CC(C)(C)CCC3c3sc4c(c3C(=O)O)CC(C)(C)CC4)cc2)NC(=O)OC2COC3OCCC23)cc1 (stereo not shown) [Compound I-887] | – | 2.85
COc1ccc(S(=O)(=O)N(CC(C)C)CC(O)C(Cc2ccc(N3Cc4nc5ccccc5cc4C3=O)cc2)NC(=O)OC2COC3OCCC23)cc1 (stereo not shown) [Compound I-888] | – | 2.1
CC(C)CN(CC(O)C(Cc1ccc(CCc2sc3c(c2C(=O)O)CC(C)(C)CC3)cc1)NC(=O)OC1COC2(C)OCCC12O)S(=O)(=O)c1ccc2ncsc2c1 (stereo not shown) [Compound I-889] | – | 1.49
COc1ccc(S(=O)(=O)N(CC(C)C)CC(O)C(Cc2ccc(NCc3ccccc3C(=O)Nc3sc4c(c3C(=O)O)CC(C)(C)CC4)cc2)NC(=O)OC2COC3(C)OCCC23O)cc1 (stereo not shown) [Compound I-891] | – | 2.88
COc1ccc(S(=O)(=O)N(CC2CCCC2)CC(O)C(Cc2ccc(NCc3ccccc3C(=O)Nc3sc4c(c3C(=O)O)CC(C)(C)CC4)cc2)NC(=O)OC2COC3(C)OCCC23O)cc1 (stereo not shown) [Compound I-892] | – | 4.06
COc1ccc(S(=O)(=O)N(CC2CCC2)CC(O)C(Cc2ccc(NCc3ccccc3C(=O)Nc3sc4c(c3C(=O)O)CC(C)(C)CC4)cc2)NC(=O)OC2COC3(C)OCCC23O)cc1 (stereo not shown) [Compound I-893] | – | 5.83
COc1ccc(S(=O)(=O)N(CC(C)C)CC(O)C(Cc2ccc(OCC3CCN(c4ccc(-c5sc6c(c5C(=O)O)CC(C)(C)CC6)cc4)C3)cc2)NC(=O)OC2COC3(C)OCCC23)cc1 (stereo not shown) [Compound I-894] | – | 20.4
COc1ccc(S(=O)(=O)N(CC(C)C)CC(O)C(Cc2ccc(OCC3CCN(c4cccc(-c5sc6c(c5C(=O)O)CC(C)(C)CC6)c4)C3)cc2)NC(=O)OC2COC3(C)OCCC23)cc1 (stereo not shown) [Compound I-896] | – | 16.7
COc1ccc(S(=O)(=O)N(CC(C)C)CC(O)C(Cc2ccc(NCc3ccccc3-c3ccc4[nH]c(C(=O)O)cc4c3)cc2)NC(=O)OC2COC3(C)OCCC23)cc1 (stereo not shown) [Compound I-897] | – | 2.46
COc1ccc(S(=O)(=O)N(CC(C)C)CC(O)C(Cc2ccc(NCc3ccccc3-c3csc4c(C(=O)O)cccc34)cc2)NC(=O)OC2COC3(C)OCCC23)cc1 (stereo not shown) [Compound I-898] | – | 1.78
COc1ccc(S(=O)(=O)N(CC(C)C)CC(O)C(Cc2ccc(NCc3ccccc3-c3ccc4c(c3)cc(C(=O)O)n4C)cc2)NC(=O)OC2COC3(C)OCCC23)cc1 (stereo not shown) [Compound I-899] | – | 1.46
COC(=O)NC(C(=O)NC(Cc1ccccc1)C(O)CN(Cc1ccc(-c2ccc(-c3sc4c(c3C(=O)O)CC(C)(C)CC4)cc2)cc1)NC(=O)C(NC(=O)OC)C(C)(C)C)C(C)(C)C (stereo not shown) [Compound I-900] | – | 2.9
COC(=O)NC(C(=O)NC(Cc1ccccc1)C(O)CN(Cc1ccc(-c2sc3c(c2C(=O)O)CC(C)(C)CC3)cc1)NC(=O)C(NC(=O)OC)C(C)(C)C)C(C)(C)C (stereo not shown) [Compound I-901] | – | 2.34
COc1ccc(S(=O)(=O)N(CC(C)C)C[C@@H](O)[C@H](Cc2ccc(OCc3ccccc3-c3sc4c(c3C(=O)O)CC(C)(C)CC4)cc2)NC(=O)O[C@H]2CCC[C@H]3O[C@@H]4OCC[C@@H]4[C@@H]23)cc1 [Compound I-909] | – | 3.25
CCCCCCCCCCCCCC(=O)Nc1ccc(CN(C)c2ccc(C[C@H](NC(=O)OC3CO[C@@]4(C)OCC[C@@H]34)[C@H](O)CN(CC(C)C)S(=O)(=O)c3ccc(OC)cc3)cc2)c(-c2sc3c(c2C(=O)O)CC(C)(C)CC3)c1 (stereo partly shown) [Compound I-910] | – | 7.84
